According to PubChem BioAssay (NCI):
Values joined by “and” are separate entries in the source; they are usually repeats but may differ in a detail not shown here. Equal values may be shown once.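 Cells were grown in 96-well plates and exposed to each compound for 48 hours at five concentrations; endpoints were interpolated linearly between bracketing concentrations, or set to the highest concentration if not reached. Abbreviation: GI50, concentration required for 50% inhibition of growth. TGI: concentration producing complete growth inhibition.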

Assays:
Test in all cases: NCI-60 cell line screen, 48 h
[1] = system: 786-0 renal
[2] = system: KM12 colon
[3] = system: MOLT-4 leukemia
[4] = system: OVCAR-5 ovarian
[5] = system: SF-539 CNS
[6] = system: SK-MEL-2 melanoma
[7] = system: SK-MEL-28 melanoma
[8] = system: SK-MEL-5 melanoma
[9] = system: SNB-75 CNS
[10] = system: A549 NSCLC

Row | Compound | GI50 [1] | TGI [1] | GI50 [2] | TGI [2] | GI50 [3] | TGI [3] | GI50 [4] | TGI [4] | GI50 [5] | TGI [5] | GI50 [6] | TGI [6] | GI50 [7] | TGI [7] | GI50 [8] | TGI [8] | GI50 [9] | TGI [9] | GI50 [10] | TGI [10]
1 | COC(=O)[C@H](Cc1cn(C)cn1)NC(=O)[C@H](CC(C)C)NC(=O)Nc1cc(C(F)(F)F)cc(C(F)(F)F)c1 | > 10 µM | > 10 µM | > 10 µM | > 10 µM | 3.4 µM | > 10 µM | > 10 µM | > 10 µM | > 10 µM | > 10 µM | > 10 µM | > 10 µM | 8 µM | > 10 µM | > 10 µM | > 10 µM | > 10 µM | > 10 µM | – | –
2 | COc1cc2c3c(n(CCCN=[N+]=[N-])c(=O)c2cc1OC)-c1ccccc1C3=O | 4.68 µM | 69.2 µM | > 100 µM | > 100 µM | 0.702 µM | 3.38 µM | – | – | 4.73 µM | 22.8 µM | > 100 µM | > 100 µM | > 100 µM | > 100 µM | 3.17 µM | 9.25 µM | 2.53 µM | 8.49 µM | 26.2 µM | > 100 µM
3 | CC(=O)OCC1OC(SC2=N/C(=C\c3ccc(Br)s3)C(=O)N2c2ccccc2)C(OC(C)=O)C(OC(C)=O)C1OC(C)=O (stereo not given) | 17.8 µM and > 100 µM | 55.4 µM and > 100 µM | > 100 µM and 44.3 µM | > 100 µM | > 100 µM and 37.7 µM | > 100 µM | – | > 100 µM | – | – | – | > 100 µM and 48.9 µM | – | > 100 µM | – | > 100 µM | 25.1 µM and > 100 µM | 61.4 µM and > 100 µM | – | –
4 | COc1ccc(C2c3ccc4ccccc4c3Oc3ncn(CCCn4ccnc4)c(=N)c32)cc1OC (stereo not given) | 3.1 µM | 11 µM | 3.74 µM | 13.9 µM | 2.59 µM | 6.25 µM | 4.55 µM | 17.8 µM | 1.74 µM | 3.28 µM | – | – | 1.79 µM | 3.5 µM | 1.66 µM | 3.11 µM | 2.12 µM | 8.13 µM | 3.75 µM | 13.8 µM
5 | O/N=C1/CCCC/C1=C\c1ccc(Cl)c(Cl)c1 | – | > 100 µM | – | – | – | 36.4 µM | – | – | – | 41.1 µM | – | – | – | > 100 µM | – | 35.6 µM | – | 60.1 µM | – | > 100 µM
6 | O=CCCn1[nH]c(=O)ccc1=O | – | > 100 µM | – | – | – | > 100 µM | – | > 100 µM | – | > 100 µM | – | > 100 µM | – | > 100 µM | – | > 100 µM | – | > 100 µM | – | > 100 µM
7 | CCCCCCCCCCCCCCCCn1cc[n+](C)c1 | 0.5 µM | 1.91 µM | 0.264 µM | 0.756 µM | 0.306 µM | 1.5 µM | 0.329 µM | 1.64 µM | 1.16 µM | 2.38 µM | – | – | 0.707 µM | 2.05 µM | – | – | – | – | 0.326 µM | 1.6 µM
8 | NC1=NN(c2ccccc2)C(=O)C1C(=O)C(=O)Nc1ccccc1 (stereo not given) | – | > 100 µM | – | > 100 µM | – | > 100 µM | – | > 100 µM | – | > 100 µM | – | > 100 µM | – | – | – | > 100 µM | – | – | – | > 100 µM
9 | C=C(C)CC(C(=O)O)c1ccc(C)cc1 (stereo not given) | – | > 100 µM | – | > 100 µM | – | – | – | > 100 µM | – | > 100 µM | – | > 100 µM | – | > 100 µM | – | > 100 µM | – | > 100 µM | – | > 100 µM
10 | COc1ccc(C)c2sc(N(Cc3cccnc3)C(=O)c3ccc(C#N)cc3)nc12 | 56.8 µM | > 100 µM | 34.6 µM | > 100 µM | 33.5 µM | > 100 µM | 47.5 µM | > 100 µM | 55.6 µM | > 100 µM | – | – | – | – | 24.4 µM | 93.8 µM | – | – | 43.6 µM | > 100 µM
11 | CC(=O)N1c2ccccc2N(C(C)=O)C1c1ccc(C2N(C(C)=O)c3ccccc3N2C(C)=O)[nH]1 | – | > 100 µM | – | > 100 µM | – | > 100 µM | – | > 100 µM | – | > 100 µM | – | – | – | – | – | > 100 µM | – | > 100 µM | – | > 100 µM
12 | O=Cc1ccc(-c2ccc(-c3nc4ccccc4s3)cc2)o1 | > 100 µM | > 100 µM | 46.5 µM | > 100 µM | > 100 µM | > 100 µM | > 100 µM | > 100 µM | – | – | > 100 µM | > 100 µM | > 100 µM | > 100 µM | 96.4 µM | > 100 µM | > 100 µM | > 100 µM | > 100 µM | > 100 µM
13 | O=S(O)O.O=S(O)O.[Co].[NH2-].[NH2-].[NH2-].[NH2-] | > 100 µM | > 100 µM | > 100 µM | > 100 µM | – | – | > 100 µM | > 100 µM | > 100 µM | > 100 µM | > 100 µM | > 100 µM | > 100 µM | > 100 µM | > 100 µM | > 100 µM | > 100 µM | > 100 µM | > 100 µM | > 100 µM
14 | Cc1cc(-c2nc3sc(C)cn3c2/C=N/N=C(N)N)c(C)s1 | 8.68 µM | 21.1 µM | 2.68 µM | 9.62 µM | > 100 µM | > 100 µM | 13.2 µM | 28.1 µM | – | – | 40.8 µM | > 100 µM | 2.02 µM | 4.12 µM | 1.89 µM | 3.8 µM | – | – | 21.5 µM | 48.9 µM
15 | N#Cc1c(N)nc2c(c1-c1ccc(Cl)cc1)COc1ccc(F)cc1-2 | 28.7 µM | 72.8 µM | 29.4 µM | 80 µM | 22.2 µM | 44.6 µM | 27.5 µM | > 100 µM | 20.1 µM | 40.1 µM | 19 µM | 64.2 µM | – | – | 20.6 µM | 37.6 µM | > 100 µM | > 100 µM | 43.5 µM | > 100 µM
16 | CN1CCc2ccccc2C1Cc1ccccc1NC(=O)c1sc2ccccc2c1Cl (stereo not given) | – | > 100 µM | – | > 100 µM | – | > 100 µM | – | – | – | > 100 µM | – | > 100 µM | – | > 100 µM | – | > 100 µM | – | > 100 µM | – | > 100 µM
17 | C[C@@H]1CC[C@@]2(C)OC(c3ccccc3)[C@H](CO)N2C1=O (stereo not given in full) | – | > 100 µM | – | > 100 µM | – | – | – | > 100 µM | – | > 100 µM | – | > 100 µM | – | > 100 µM | – | > 100 µM | – | > 100 µM | – | > 100 µM
18 | COc1ccc(O)c(/C=N\Nc2ccccc2)c1 | – | > 100 µM | – | – | – | 18.2 µM | – | > 100 µM | – | 68.4 µM | – | > 100 µM | – | 91.4 µM | – | > 100 µM | – | > 100 µM | – | 48.4 µM
19 | N#CC(Sc1ccccc1)C(N)=O (stereo not given) | – | > 100 µM | – | > 100 µM | – | > 100 µM | – | > 100 µM | – | > 100 µM | – | – | – | – | – | > 100 µM | – | > 100 µM | – | > 100 µM
